Consider 15 compounds from ChEMBL document CHEMBL2069302, “Nortriterpene glycosides of the sarasinoside class from the sponge Lipastrotethya sp” (J Nat Prod, 2012).

Each structure is given as a SMILES string.

Experiment [1] concerns the target Sodium/potassium-transporting ATPase. Put plainly: Inhibition of Sodium/potassium-transporting ATPase. The class given is protein-complex assay, Homo sapiens.
Experiment [2] relates to A549. Put plainly: Cytotoxicity against human A549 cells. It is filed as functional. The following applies: read-out: LC50 (the source's name).
The test system of experiment [3] is K562. Description: Cytotoxicity against human K562 cells. It is filed as functional. The following applies: read-out: LC50 (the source's name).

In general, IC50 refers to the concentration that gives 50% inhibition. High values mean weaker potency, low ones greater potency. As for `CC(=O)N[C@H]1[C@H](O[C@@H]2CO[C@@H](O[C@H]3CC[C@]4(C)C5=C(CC[C@H]4C3(C)C)[C@@H]3CC[C@H]([C@H](C)CC(=O)C=C(C)C)[C@@]3(C)CC5)[C@H](O[C@@H]3O[C@H](CO)[C@@H](O)[C@H](O)[C@H]3NC(C)=O)[C@H]2O)O[C@H](CO)[C@H](O)[C@@H]1O` (relative stereo), in experiment [1], the IC50 is 56.1 µM. Also, the results for the CC50 in experiment [2] and in experiment [3] were 10.7 µM and 20.2 µM, respectively.
For `CC(=O)N[C@H]1[C@H](O[C@@H]2CO[C@@H](O[C@H]3CC[C@]4(C)C5=C(CC[C@H]4C3(C)C)C3=CC[C@H]([C@H](C)CC(=O)C=C(C)C)[C@@]3(C)CC5)[C@H](O[C@@H]3O[C@H](CO[C@@H]4O[C@H](CO)[C@@H](O)[C@H](O)[C@H]4O[C@@H]4O[C@H](CO)[C@@H](O)[C@H](O)[C@H]4O)[C@@H](O)[C@H](O)[C@H]3NC(C)=O)[C@H]2O)O[C@H](CO)[C@H](O)[C@@H]1O` [SARASINOSIDE A3], in that order: > 77.7 µM, 10.1 µM and 24.8 µM.
In the same order, the values of `CC(=O)N[C@H]1[C@H](O[C@@H]2CO[C@@H](O[C@H]3CC[C@@]4(C)[C@@H](CCC5=C6CC[C@H]([C@H](C)CC(=O)C=C(C)C)[C@@]6(C)CC[C@@]4(O)O5)C3(C)C)[C@H](O[C@@H]3O[C@H](CO[C@@H]4O[C@H](CO)[C@@H](O)[C@H](O)[C@H]4O[C@@H]4O[C@H](CO)[C@@H](O)[C@H](O)[C@H]4O)[C@@H](O)[C@H](O)[C@H]3NC(C)=O)[C@H]2O)O[C@H](CO)[C@H](O)[C@@H]1O` [SARASINOSIDE Q] are > 75.7 µM, 14 µM and 17.9 µM.
In the same order, the values of `CC(C)=CC(=O)C[C@@H](C)[C@H]1CCC2=C3CC[C@H]4C(C)(C)[C@@H](O)CC[C@]4(C)[C@H]3CC[C@@]21C` are > 234 µM, 41.6 µM and 69.4 µM.
On to `COc1cccc2c1C(=O)c1c(O)c3c(c(O)c1C2=O)C[C@@](O)(C(=O)CO)C[C@@H]3O[C@H]1C[C@H](N)[C@H](O)[C@H](C)O1` [DOXORUBICIN], for which the CC50 in experiment [2] amounted to 1.7 µM; in experiment [3], 4.7 µM.
As for `CC(=O)N[C@H]1[C@H](O[C@@H]2CO[C@@H](O[C@H]3CC[C@@]4(C)[C@@H](CC[C@@]5(O)[C@]4(O)CC=C4[C@@H]([C@H](C)CC(=O)C=C(C)C)CC[C@@]45C)C3(C)C)[C@H](O[C@@H]3O[C@H](CO[C@@H]4O[C@H](CO)[C@@H](O)[C@H](O)[C@H]4O[C@@H]4O[C@H](CO)[C@@H](O)[C@H](O)[C@H]4O)[C@@H](O)[C@H](O)[C@H]3NC(C)=O)[C@H]2O)O[C@H](CO)[C@H](O)[C@@H]1O` [SARASINOSIDE R], the IC50 in experiment [1] is > 75.7 µM. For the same compound, the CC50 in experiment [2] was 14.7 µM; in experiment [3], > 100 µM.
For `CC(=O)N[C@H]1[C@H](O[C@@H]2CO[C@@H](O[C@H]3CC[C@]4(C)C5=C(CC[C@H]4C3(C)C)[C@@H]3CC[C@H]([C@H](C)CC(=O)CC(C)(C)O)[C@@]3(C)CC5)[C@H](O[C@@H]3O[C@H](CO[C@@H]4O[C@H](CO)[C@@H](O)[C@H](O)[C@H]4O[C@@H]4O[C@H](CO)[C@@H](O)[C@H](O)[C@H]4O)[C@@H](O)[C@H](O)[C@H]3NC(C)=O)[C@H]2O)O[C@H](CO)[C@H](O)[C@@H]1O` [SARASINOSIDE J], in that order: > 76.5 µM, 10.3 µM and 20.8 µM.
For `CO[C@@H]1C[C@H]([C@H](C)CC(=O)C=C(C)C)[C@@]2(C)CC[C@@]3(O)C(=C12)CC[C@H]1C(C)(C)[C@@H](O[C@@H]2OC[C@@H](O[C@@H]4O[C@H](CO)[C@H](O)[C@H](O)[C@H]4NC(C)=O)[C@H](O)[C@H]2O[C@@H]2O[C@H](CO[C@@H]4O[C@H](CO)[C@@H](O)[C@H](O)[C@H]4O[C@@H]4O[C@H](CO)[C@@H](O)[C@H](O)[C@H]4O)[C@@H](O)[C@H](O)[C@H]2NC(C)=O)CC[C@@]13C` [SARASINOSIDE H2], in that order: > 74.9 µM, > 100 µM and 42.7 µM.
For `CC(=O)N[C@H]1[C@H](O[C@H]2[C@H](O[C@H]3CC[C@]4(C)C5=C(CC[C@H]4C3(C)C)[C@@H]3CC[C@H]([C@H](C)CC(=O)C=C(C)C)[C@@]3(C)CC5)OC[C@@H](O)[C@@H]2O)O[C@H](CO[C@@H]2O[C@H](CO)[C@@H](O)[C@H](O)[C@H]2O[C@@H]2O[C@H](CO)[C@@H](O)[C@H](O)[C@H]2O)[C@@H](O)[C@@H]1O`, in that order: 54.7 µM, 9.1 µM and 18.7 µM.
Consider `CC(=O)N[C@H]1[C@H](O[C@@H]2CO[C@@H](O[C@H]3CC[C@]4(C)C5=CC[C@]6(C)[C@@H]([C@H](C)CC(=O)C=C(C)C)CC[C@H]6[C@@]5(O)CC[C@@]4(O)C3(C)C)[C@H](O[C@@H]3O[C@H](CO[C@@H]4O[C@H](CO)[C@@H](O)[C@H](O)[C@H]4O[C@@H]4O[C@H](CO)[C@@H](O)[C@H](O)[C@H]4O)[C@@H](O)[C@H](O)[C@H]3NC(C)=O)[C@H]2O)O[C@H](CO)[C@H](O)[C@@H]1O` [SARASINOSIDE O], for which, in experiment [1], the IC50 was > 75.7 µM. Further, the results for the CC50 in experiment [2] and in experiment [3] were 54.7 µM and 61.5 µM, respectively.
For `CC(=O)N[C@H]1[C@H](O[C@@H]2CO[C@@H](O[C@H]3CC[C@]4(C)C5=C(CC[C@H]4C3(C)C)[C@@H]3CC[C@H]([C@H](C)CC(=O)C=C(C)C)[C@@]3(C)CC5)[C@H](O[C@@H]3O[C@H](CO[C@@H]4O[C@H](CO)[C@@H](O)[C@H](O)[C@H]4O[C@@H]4O[C@H](CO)[C@@H](O)[C@H](O)[C@H]4O)[C@@H](O)[C@H](O)[C@H]3NC(C)=O)[C@H]2O)O[C@H](CO)[C@H](O)[C@@H]1O` [SARASINOSIDE A1], in that order: 46.5 µM, 7.6 µM and 7.4 µM.
For `CC(=O)N[C@H]1[C@H](O[C@@H]2CO[C@@H](O[C@H]3CC[C@@]4(C)[C@@H](CCC5=C6[C@H](O)C[C@H]([C@H](C)CC(=O)C=C(C)C)[C@@]6(C)CC[C@@]54O)C3(C)C)[C@H](O[C@@H]3O[C@H](CO[C@@H]4O[C@H](CO)[C@@H](O)[C@H](O)[C@H]4O[C@@H]4O[C@H](CO)[C@@H](O)[C@H](O)[C@H]4O)[C@@H](O)[C@H](O)[C@H]3NC(C)=O)[C@H]2O)O[C@H](CO)[C@H](O)[C@@H]1O` [SARASINOSIDE H1], in that order: > 75.7 µM, 14.2 µM and 37.4 µM.
In the same order, the values of `CC(=O)N[C@H]1[C@H](O[C@@H]2CO[C@@H](O[C@H]3CC[C@]4(C)C5=CC[C@]6(C)[C@@H]([C@H](C)CC(=O)C=C(C)C)CC[C@H]6C5=CC[C@H]4C3(C)C)[C@H](O[C@@H]3O[C@H](CO[C@@H]4O[C@H](CO)[C@@H](O)[C@H](O)[C@H]4O[C@@H]4O[C@H](CO)[C@@H](O)[C@H](O)[C@H]4O)[C@@H](O)[C@H](O)[C@H]3NC(C)=O)[C@H]2O)O[C@H](CO)[C@H](O)[C@@H]1O` [SARASINOSIDE A2] are > 77.7 µM, 7.6 µM and 8.5 µM.
Consider `CC(=O)N[C@H]1[C@H](O[C@@H]2CO[C@@H](O[C@H]3CC[C@]4(C)C5=CC[C@@]6(C)C(=C(CC[C@H]4C3(C)C)O5)CC[C@@H]6[C@H](C)CC(=O)C=C(C)C)[C@H](O[C@@H]3O[C@H](CO[C@@H]4O[C@H](CO)[C@@H](O)[C@H](O)[C@H]4O[C@@H]4O[C@H](CO)[C@@H](O)[C@H](O)[C@H]4O)[C@@H](O)[C@H](O)[C@H]3NC(C)=O)[C@H]2O)O[C@H](CO)[C@H](O)[C@@H]1O` [SARASINOSIDE M], for which the IC50 in experiment [1] is > 76.7 µM. The CC50 in experiment [2] worked out at 7.7 µM; in experiment [3], 12.1 µM.
On to `CC(=O)N[C@H]1[C@H](O[C@@H]2CO[C@@H](O[C@H]3CC[C@]4(C)C5=CC[C@]6(C)[C@@H]([C@H](C)CC(=O)C=C(C)C)CC[C@H]6[C@]5(O)CC[C@]4(O)C3(C)C)[C@H](O[C@@H]3O[C@H](CO[C@@H]4O[C@H](CO)[C@@H](O)[C@H](O)[C@H]4O[C@@H]4O[C@H](CO)[C@@H](O)[C@H](O)[C@H]4O)[C@@H](O)[C@H](O)[C@H]3NC(C)=O)[C@H]2O)O[C@H](CO)[C@H](O)[C@@H]1O` [SARASINOSIDE P], for which, in experiment [1], the IC50 was > 75.7 µM. Also, the CC50 in experiment [2] was 17.9 µM; in experiment [3] it was 11.6 µM.
